Assay results reported in publication PMC4447944 (The Journal of Biological Chemistry, 2015).
Where two headings read alike, the source gives them in different places.

Assays:
hVDR = target: T1, hVDR (Homo sapiens, UniProt P11473); assay: Nuclear hormone receptor assay (Eurofins-CEREP); conditions: read-out: Relative IC50
T1 construct: Eurofins-CEREP

hFLT3(ITD) = assay: KINOMEscan; assay type: binding, human
hSRPK3 = target: T2, hSRPK3 (Homo sapiens, UniProt Q9UPE1); assay: KINOMEscan; assay type: binding
T2 construct: purchased DiscoverX (KINOMEscan platform)

hHUNK = target: T3, hHUNK (Homo sapiens, UniProt P57058); assay: KINOMEscan; assay type: binding
T3 construct: purchased DiscoverX (KINOMEscan panel)
T3 sequence (P57058 whole entry): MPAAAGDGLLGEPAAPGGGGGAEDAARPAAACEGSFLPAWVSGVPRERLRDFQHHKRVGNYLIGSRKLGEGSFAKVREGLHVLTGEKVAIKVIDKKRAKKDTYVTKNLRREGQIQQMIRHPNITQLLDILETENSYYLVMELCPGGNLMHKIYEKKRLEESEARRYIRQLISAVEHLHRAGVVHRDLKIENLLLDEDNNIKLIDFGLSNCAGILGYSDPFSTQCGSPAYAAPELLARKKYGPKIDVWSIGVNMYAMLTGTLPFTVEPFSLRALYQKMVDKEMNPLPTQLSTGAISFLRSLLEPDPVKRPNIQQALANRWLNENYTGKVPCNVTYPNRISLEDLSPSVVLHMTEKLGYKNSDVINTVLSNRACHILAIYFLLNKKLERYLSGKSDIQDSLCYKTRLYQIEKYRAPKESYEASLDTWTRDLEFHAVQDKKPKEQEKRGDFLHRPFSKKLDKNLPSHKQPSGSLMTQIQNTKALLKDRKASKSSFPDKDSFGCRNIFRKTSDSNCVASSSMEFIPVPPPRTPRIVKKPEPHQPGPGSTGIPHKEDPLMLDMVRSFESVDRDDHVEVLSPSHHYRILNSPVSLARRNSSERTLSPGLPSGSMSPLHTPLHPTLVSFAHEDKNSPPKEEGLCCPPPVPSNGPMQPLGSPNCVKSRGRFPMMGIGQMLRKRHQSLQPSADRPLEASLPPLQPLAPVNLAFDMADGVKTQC

hEPHA4 = target: T4, hEPHA4 (Homo sapiens, UniProt P54764); assay: KINOMEscan; assay type: binding
T4 construct: purchased DiscoverX

hRSK3(Kin.Dom.2-C-term) = target: T5, hRSK3(Kin.Dom.2-C-term) (Homo sapiens, UniProt Q15349); assay: KINOMEscan; assay type: binding
T5 construct: hRSK3(Kin.Dom.2-C-term); purchased DiscoverX (KINOMEscan platform)

hSTK39 = target: T6, hSTK39 (Homo sapiens, UniProt Q9UEW8); assay: KINOMEscan; assay type: binding
T6 construct: purchased DiscoverX (KINOMEscan platform)

hERK4 = target: T7, hERK4 (Homo sapiens, UniProt P31152); assay: KINOMEscan; assay type: binding
T7 construct: purchased DiscoverX
T7 sequence (P31152 whole entry): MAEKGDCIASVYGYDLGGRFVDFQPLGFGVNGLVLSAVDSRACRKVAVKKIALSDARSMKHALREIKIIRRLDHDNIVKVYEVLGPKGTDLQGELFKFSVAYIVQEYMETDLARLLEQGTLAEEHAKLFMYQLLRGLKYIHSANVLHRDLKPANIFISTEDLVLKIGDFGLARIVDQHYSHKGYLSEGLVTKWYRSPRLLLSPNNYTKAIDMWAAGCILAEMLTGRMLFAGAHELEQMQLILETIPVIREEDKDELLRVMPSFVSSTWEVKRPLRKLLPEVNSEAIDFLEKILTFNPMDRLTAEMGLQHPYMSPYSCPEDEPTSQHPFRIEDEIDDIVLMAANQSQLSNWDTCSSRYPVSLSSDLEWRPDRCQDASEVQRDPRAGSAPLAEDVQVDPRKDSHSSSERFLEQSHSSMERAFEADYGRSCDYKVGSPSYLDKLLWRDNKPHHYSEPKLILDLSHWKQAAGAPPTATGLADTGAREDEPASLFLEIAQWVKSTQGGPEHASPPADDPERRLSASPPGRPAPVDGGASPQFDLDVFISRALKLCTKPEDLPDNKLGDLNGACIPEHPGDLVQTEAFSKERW

hDDR2 = target: T8, hDDR2 (Homo sapiens, UniProt Q16832); assay: KINOMEscan; assay type: binding
T8 construct: purchased DiscoverX (KINOMEscan platform)

hEGFR(L747-T751del,Sins) = hEGFR(L747-T751del,Sins) (Homo sapiens, UniProt P00533, DEL747-751/INS746S); assay: KINOMEscan; assay type: binding
hCDKL2 = target: T9, hCDKL2 (Homo sapiens, UniProt Q92772); assay: KINOMEscan; assay type: binding
T9 construct: purchased DiscoverX

[1] = target: T10, hRPS6KA5(Kin.Dom.1-N-term) (Homo sapiens, UniProt O75582); assay: KINOMEscan; assay type: binding
T10 construct: hRPS6KA5(Kin.Dom.1-N-term); purchased DiscoverX (KINOMEscan platform)
T10 sequence (O75582 49-318 limits assumed): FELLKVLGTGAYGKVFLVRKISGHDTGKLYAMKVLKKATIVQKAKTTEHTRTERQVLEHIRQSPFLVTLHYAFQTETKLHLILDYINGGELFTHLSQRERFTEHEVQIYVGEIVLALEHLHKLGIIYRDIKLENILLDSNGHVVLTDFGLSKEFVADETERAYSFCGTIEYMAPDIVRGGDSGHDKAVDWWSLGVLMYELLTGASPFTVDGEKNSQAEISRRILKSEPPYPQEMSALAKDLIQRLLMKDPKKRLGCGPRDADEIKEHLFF

hKIT-autoinhibited = target: T11, hKIT-autoinhibited (Homo sapiens, UniProt P10721); assay: KINOMEscan; assay type: binding
T11 construct: purchased DiscoverX (KINOMEscan platform)

hEGFR(L861Q) = target: T12, hEGFR(L861Q) (Homo sapiens, UniProt P00533, L861Q); assay: KINOMEscan; assay type: binding
T12 construct: purchased DiscoverX
T12 sequence (P00533 25-1210 L861Q): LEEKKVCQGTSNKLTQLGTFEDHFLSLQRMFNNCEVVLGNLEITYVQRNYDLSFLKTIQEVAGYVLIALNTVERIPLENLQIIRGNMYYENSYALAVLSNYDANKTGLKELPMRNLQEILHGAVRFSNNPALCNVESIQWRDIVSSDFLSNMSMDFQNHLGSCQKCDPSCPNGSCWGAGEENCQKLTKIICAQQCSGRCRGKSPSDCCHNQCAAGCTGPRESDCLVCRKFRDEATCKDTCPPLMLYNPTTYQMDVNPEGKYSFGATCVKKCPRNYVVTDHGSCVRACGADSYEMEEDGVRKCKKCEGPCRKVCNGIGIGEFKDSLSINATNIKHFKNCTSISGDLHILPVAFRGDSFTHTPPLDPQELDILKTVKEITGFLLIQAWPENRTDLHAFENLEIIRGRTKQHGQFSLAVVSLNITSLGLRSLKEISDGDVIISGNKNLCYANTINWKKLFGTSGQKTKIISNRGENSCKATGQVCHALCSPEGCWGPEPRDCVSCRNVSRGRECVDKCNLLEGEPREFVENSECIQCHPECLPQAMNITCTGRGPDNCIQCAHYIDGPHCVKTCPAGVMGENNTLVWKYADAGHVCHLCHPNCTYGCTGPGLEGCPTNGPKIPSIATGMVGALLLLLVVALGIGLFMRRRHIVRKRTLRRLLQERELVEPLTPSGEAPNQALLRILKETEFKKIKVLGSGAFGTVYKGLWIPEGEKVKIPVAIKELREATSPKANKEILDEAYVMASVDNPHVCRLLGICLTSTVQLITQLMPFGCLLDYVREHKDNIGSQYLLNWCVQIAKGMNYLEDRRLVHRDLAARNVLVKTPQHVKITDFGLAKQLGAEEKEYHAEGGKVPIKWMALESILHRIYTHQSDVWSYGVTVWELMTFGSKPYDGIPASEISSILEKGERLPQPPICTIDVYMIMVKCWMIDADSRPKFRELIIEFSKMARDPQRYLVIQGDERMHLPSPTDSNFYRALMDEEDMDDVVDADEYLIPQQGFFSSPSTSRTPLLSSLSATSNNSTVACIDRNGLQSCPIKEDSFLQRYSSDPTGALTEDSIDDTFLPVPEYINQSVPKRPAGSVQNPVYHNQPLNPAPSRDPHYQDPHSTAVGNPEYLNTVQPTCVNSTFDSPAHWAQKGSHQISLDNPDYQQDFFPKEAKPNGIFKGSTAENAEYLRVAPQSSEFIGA

hLOK = target: T13, hLOK (Homo sapiens, UniProt O94804); assay: KINOMEscan; assay type: binding
T13 construct: purchased DiscoverX (KINOMEscan platform)

[2] = tested on: 454 kinases, 35 G protein-coupled receptors, 14 nuclear hormone receptors, and three cytochrome P450 enzymes; assay: Off-target profiling summary; conditions: 35 GPCRs
Procedure: The compound was further profiled against 454 kinases, […], 14 nuclear hormone receptors, and three cytochrome P450 enzyme targets (supplemental Tables 2–4). The only inhibitory activity that was noted (at 98% at 10 μM) targeted the calcium mobilization antagonist mode of hADRα1A, a member of the G protein-coupled receptor family involved in epinephrine signaling.

hFLT1 = target: T14, hFLT1 (Homo sapiens, UniProt P17948); assay: KINOMEscan; assay type: binding
T14 construct: purchased DiscoverX

hCSNK1D = target: T15, hCSNK1D (Homo sapiens, UniProt P48730); assay: KINOMEscan; assay type: binding
T15 construct: purchased DiscoverX (KINOMEscan platform)
T15 sequence (P48730 whole entry): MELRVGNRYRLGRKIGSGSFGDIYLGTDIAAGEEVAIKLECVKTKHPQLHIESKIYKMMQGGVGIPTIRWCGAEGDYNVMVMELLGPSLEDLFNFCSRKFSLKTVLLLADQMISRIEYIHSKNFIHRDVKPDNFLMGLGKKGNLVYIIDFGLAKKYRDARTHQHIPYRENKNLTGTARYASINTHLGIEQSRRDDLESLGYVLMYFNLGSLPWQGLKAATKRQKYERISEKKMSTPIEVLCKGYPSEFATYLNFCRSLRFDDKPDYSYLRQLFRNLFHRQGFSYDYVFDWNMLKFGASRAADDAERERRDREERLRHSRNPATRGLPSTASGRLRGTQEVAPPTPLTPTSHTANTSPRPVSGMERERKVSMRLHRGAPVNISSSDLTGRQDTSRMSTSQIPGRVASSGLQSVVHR

hULK1 = target: T16, hULK1 (Homo sapiens, UniProt O75385); assay: KINOMEscan; assay type: binding
T16 construct: purchased DiscoverX

hWNK3 = target: T17, hWNK3 (Homo sapiens, UniProt Q9BYP7); assay: KINOMEscan; assay type: binding
T17 construct: purchased DiscoverX
T17 sequence (Q9BYP7 whole entry): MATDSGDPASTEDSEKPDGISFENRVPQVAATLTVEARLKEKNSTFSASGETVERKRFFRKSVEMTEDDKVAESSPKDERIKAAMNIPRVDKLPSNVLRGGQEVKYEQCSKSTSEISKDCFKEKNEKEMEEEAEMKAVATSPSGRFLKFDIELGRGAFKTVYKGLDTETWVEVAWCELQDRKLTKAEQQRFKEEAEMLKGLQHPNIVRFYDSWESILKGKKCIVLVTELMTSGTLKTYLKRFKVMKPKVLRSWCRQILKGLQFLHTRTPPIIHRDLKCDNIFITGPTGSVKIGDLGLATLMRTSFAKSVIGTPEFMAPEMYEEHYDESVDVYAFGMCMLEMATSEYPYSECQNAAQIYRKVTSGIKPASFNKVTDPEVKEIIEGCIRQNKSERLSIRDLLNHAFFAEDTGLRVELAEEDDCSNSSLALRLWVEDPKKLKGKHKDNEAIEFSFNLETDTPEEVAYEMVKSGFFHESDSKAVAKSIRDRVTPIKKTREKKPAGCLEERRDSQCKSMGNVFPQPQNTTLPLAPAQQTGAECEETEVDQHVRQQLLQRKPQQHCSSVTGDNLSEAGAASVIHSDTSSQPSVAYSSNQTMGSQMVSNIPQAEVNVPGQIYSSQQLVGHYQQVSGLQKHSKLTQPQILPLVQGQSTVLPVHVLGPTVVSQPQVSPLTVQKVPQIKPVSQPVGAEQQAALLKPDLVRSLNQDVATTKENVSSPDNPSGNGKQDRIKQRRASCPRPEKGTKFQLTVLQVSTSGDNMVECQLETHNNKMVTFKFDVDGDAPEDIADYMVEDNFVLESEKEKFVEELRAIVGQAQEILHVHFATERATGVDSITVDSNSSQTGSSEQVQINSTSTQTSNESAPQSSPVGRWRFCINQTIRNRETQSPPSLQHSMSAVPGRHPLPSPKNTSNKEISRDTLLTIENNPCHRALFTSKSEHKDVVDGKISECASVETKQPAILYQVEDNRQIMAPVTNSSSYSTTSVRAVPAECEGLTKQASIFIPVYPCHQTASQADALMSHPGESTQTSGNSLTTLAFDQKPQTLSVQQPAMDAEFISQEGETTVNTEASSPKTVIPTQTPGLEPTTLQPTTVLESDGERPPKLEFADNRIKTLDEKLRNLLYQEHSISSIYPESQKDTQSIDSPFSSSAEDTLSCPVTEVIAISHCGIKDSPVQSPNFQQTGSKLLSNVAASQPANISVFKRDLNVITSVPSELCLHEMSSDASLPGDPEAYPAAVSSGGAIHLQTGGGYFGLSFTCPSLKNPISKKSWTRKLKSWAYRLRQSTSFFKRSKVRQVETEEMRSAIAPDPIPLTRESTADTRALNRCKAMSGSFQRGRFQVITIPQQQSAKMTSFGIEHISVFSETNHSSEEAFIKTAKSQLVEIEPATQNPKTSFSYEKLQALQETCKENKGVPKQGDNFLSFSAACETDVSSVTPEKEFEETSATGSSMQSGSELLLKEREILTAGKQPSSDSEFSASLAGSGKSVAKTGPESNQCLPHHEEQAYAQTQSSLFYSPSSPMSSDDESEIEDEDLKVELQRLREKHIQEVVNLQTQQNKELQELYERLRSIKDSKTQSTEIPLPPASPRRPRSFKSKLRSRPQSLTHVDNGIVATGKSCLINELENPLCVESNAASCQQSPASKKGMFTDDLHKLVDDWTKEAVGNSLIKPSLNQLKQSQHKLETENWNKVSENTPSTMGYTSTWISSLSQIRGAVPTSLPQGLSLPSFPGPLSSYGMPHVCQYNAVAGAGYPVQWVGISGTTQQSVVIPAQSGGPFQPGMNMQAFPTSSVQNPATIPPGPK

hHCK = target: T18, hHCK (Homo sapiens, UniProt P08631); assay: KINOMEscan; assay type: binding
T18 construct: purchased DiscoverX

hMLCK = target: T19, hMLCK (Homo sapiens, UniProt Q32MK0); assay: KINOMEscan; assay type: binding
T19 construct: purchased DiscoverX

hHASPIN = target: T20, hHASPIN (Homo sapiens, UniProt Q8TF76); assay: KINOMEscan; assay type: binding
T20 construct: purchased DiscoverX

[3] = tested on: ESCC, HCC, and breast cancer cell lines; assay: Proliferation assay (CellTiter-Glo); assay type: cell-based; conditions: Homo sapiens, range over cell lines of all three panels
Procedure: Cell viability was measured using CellTiter-Glo^TM (Promega) according to the manufacturer's instructions.

hPPARα = target: T21, hPPARα (Homo sapiens, UniProt Q07869); assay: Nuclear hormone receptor assay (Eurofins-CEREP); conditions: read-out: Relative IC50
T21 construct: Eurofins-CEREP

hTLK2 = target: T22, hTLK2 (Homo sapiens, UniProt Q86UE8); assay: KINOMEscan; assay type: binding
T22 construct: purchased DiscoverX

hYSK4 = target: T23, hYSK4 (Homo sapiens, UniProt Q56UN5); assay: KINOMEscan; assay type: binding
T23 construct: purchased DiscoverX

hMAK = target: T24, hMAK (Homo sapiens, UniProt P20794); assay: KINOMEscan; assay type: binding
T24 construct: purchased DiscoverX (KINOMEscan platform)

hMAP4K3 = target: T25, hMAP4K3 (Homo sapiens, UniProt Q8IVH8); assay: KINOMEscan; assay type: binding
T25 construct: purchased DiscoverX (KINOMEscan platform)

hM2 = target: T26, hM2 (Homo sapiens, UniProt P08172); assay: β-arrestin Agonist (Eurofins-CEREP); conditions: @ 10 μM
T26 sequence (P08172 1-466): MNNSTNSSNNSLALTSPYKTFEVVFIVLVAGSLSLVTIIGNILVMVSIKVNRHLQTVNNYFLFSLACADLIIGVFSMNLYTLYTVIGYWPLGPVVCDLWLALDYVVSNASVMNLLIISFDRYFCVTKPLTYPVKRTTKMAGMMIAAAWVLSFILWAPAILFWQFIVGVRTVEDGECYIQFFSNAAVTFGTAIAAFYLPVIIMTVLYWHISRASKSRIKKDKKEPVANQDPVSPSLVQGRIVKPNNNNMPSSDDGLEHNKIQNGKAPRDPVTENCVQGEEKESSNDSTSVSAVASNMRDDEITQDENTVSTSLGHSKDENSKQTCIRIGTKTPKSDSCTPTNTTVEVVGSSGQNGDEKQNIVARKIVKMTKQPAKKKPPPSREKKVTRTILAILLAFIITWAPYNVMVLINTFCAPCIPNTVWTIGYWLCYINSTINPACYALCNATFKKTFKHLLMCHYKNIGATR

hGSK3B = target: T27, hGSK3B (Homo sapiens, UniProt P49841); assay: KINOMEscan; assay type: binding
T27 construct: purchased DiscoverX

hCAMK4 = target: T28, hCAMK4 (Homo sapiens, UniProt Q16566); assay: KINOMEscan; assay type: binding
T28 construct: purchased DiscoverX

For `Cc1cn(CCN2CCN(c3ccccc3-c3cc(C#N)cc(C(=O)NCCCN4CCCC4)c3)CC2)c2ccccc12` [LLY-507, 3-cyano-5-{2-[4-[2-(3-methylindol-1-yl)ethyl]piperazin-1-yl]-phenyl}-N-[(3-pyrrolidin-1-yl)propyl]benzamide], which IC50 (hVDR) is on record?
Its IC50 is > 10 µM.

What about the IC50 (hFLT3(ITD)) of the same compound?
The IC50 was > 20 µM.

What about the IC50 (hSRPK3) of the same compound?
Its IC50 is > 20 µM.

What about the IC50 (hHUNK) of the same compound?
Its IC50 is > 20 µM.

And the IC50 (hEPHA4)?
Its IC50 is > 20 µM.

What about the IC50 (hRSK3(Kin.Dom.2-C-term)) of the same compound?
Its IC50 is > 20 µM.

And the IC50 (hSTK39)?
Its IC50 is > 20 µM.

What about the IC50 (hERK4) of the same compound?
Its IC50 is > 20 µM.

And the IC50 (hDDR2)?
Its IC50 is > 20 µM.

And the IC50 (hEGFR(L747-T751del,Sins))?
Its IC50 is > 20 µM.

What about the IC50 (hCDKL2) of the same compound?
The IC50 was > 20 µM.

And the IC50 [1]?
The IC50 was > 20 µM.

And the IC50 (hKIT-autoinhibited)?
Its IC50 is > 20 µM.

What about the IC50 (hEGFR(L861Q)) of the same compound?
The IC50 was > 20 µM.

And the IC50 (hLOK)?
Its IC50 is > 20 µM.

What about the “inactive against off-target panels” value [2] of the same compound?
Its value is > 20 µM.

What about the IC50 (hFLT1) of the same compound?
Its IC50 is > 20 µM.

What about the IC50 (hCSNK1D) of the same compound?
The IC50 was > 20 µM.

And the IC50 (hULK1)?
Its IC50 is > 20 µM.

And the IC50 (hWNK3)?
Its IC50 is > 20 µM.

And the IC50 (hHCK)?
Its IC50 is > 20 µM.

And the IC50 (hMLCK)?
The IC50 was > 20 µM.

What about the IC50 (hHASPIN) of the same compound?
The IC50 was > 20 µM.

What about the IC50 ([3]; 96 h, 3 to 4-day treatment, read-out: IC50, proliferation, standard assay) of the same compound?
Its IC50 is 1.5 to 6 µM.

What about the IC50 ([3]; 168 h, 7-day treatment, read-out: IC50, proliferation, longer term assay) of the same compound?
Its IC50 is 0.3 to 3.2 µM.

What about the IC50 (hPPARα) of the same compound?
Its IC50 is > 10 µM.

And the IC50 (hTLK2)?
Its IC50 is > 20 µM.

And the IC50 (hYSK4)?
The IC50 was > 20 µM.

And the IC50 (hMAK)?
Its IC50 is > 20 µM.

And the IC50 (hMAP4K3)?
The IC50 was > 20 µM.

What about the “% Effect, Stimulation” value (hM2) of the same compound?
Its value is 5.1%.

And the IC50 (hGSK3B)?
The IC50 was > 20 µM.

What about the IC50 (hCAMK4) of the same compound?
The IC50 was > 20 µM.
